Measurements taken from patent EP0540185A1, “4'-(N-substituted-N-oxide)staurosporine derivatives” (SCHERING CORPORATION, priority 1991, dated 1993).

Legend:
[1] = target: Myosin light chain kinase (MLCK) (Homo sapiens, UniProt Q15746); assay: Myosin light chain kinase (MLCK) assay; format: biochemical; conditions: MLCK substrate peptide, 10 nM calmodulin, 10 minutes
Procedure: (§1) The below listed Test Methods A and B were run in accordance with the procedures described in Bishop, W.R., Petrin, J., Wang, L., Ramesh, U., and Doll, R.J. (1990) Biochemical Pharmacology, Vol. 40,2129-2135 and Hannun et al. J. Biol. Chem. (1985), Vol. 260, 10039-10043, which are herein incorporated by reference with the following modifications.
B. Myosin Light Chain Kinase ("MLCK") Protocol
Myosin light chain kinase (MLCK) assays were conducted in accordance with the methods of the Bishop et al. and Hannun et al. articles listed above in a reaction mixture containing 30 mM MLCK substrate peptide (Lys-Lys-Arg-Pro-Gln-Arg-Ala-Thr-Ser-Asn-Val-Phe-Ser-NH₂), 10 nM calmodulin, 25 mM [g-32P]ATP; 0.1 mM Ca⁺² acetate and 10 mM Mg⁺² acetate. Reactions were stopped after 10 minutes by addition of […] of 375 mM H₃PO₄ and spotting on phosphocellulose P81 paper.

[2] = target: partially purified rat brain PKC; assay: Mixed micellular protein kinase C (PKC) assay; format: biochemical; conditions: for IC50: histone III-S substrate, 23°C, 15 min, 2% DMSO; for MLCK/PKC: selectivity, ratio of IC50 MLCK to IC50 PKC
Procedure: as §1
A. Protein Kinase C ("PKC") Protocol
Mixed micellular protein kinase C assays were conducted in accordance with the methods described in the two articles cited just above (namely, Bishop et al, and Hannun et al), in a reaction mixture (0.25 mL total volume) containing: 20 mM Tris-HCl (pH 7.5); […] histone III-S; 10 mM MgCl₂; 5 mM [g-32P]ATP (4 x 10^6 cpm/mmol); 200 mM CaCl₂; 32 mg/mL of phosphatidylserine; 1.6 mg/mL of 1-oleoyl-2-acetylglycerol and various concentrations of compounds of this invention added from a dimethyl-sulfoxide (DMSO) stock solution. The final concentration of DMSO in the reaction was 2% w/v. Reactions were started by addition of approximately […] of partially purified rat brain PKC and allowed to proceed at 23°C for 15 min. Reactions were terminated by collection of trichloroacetic acid-precipitated phosphorylated histone on GF/C filters using a Brandel Cell Harvester (Model No. M-24-R).

[3] = tested on: Normal Human Epidermal Keratinocyte (NHEK) Cultures; assay: Inhibition of spontaneous and induced cornified envelope (CE) formation in NHEK cultures; format: cell-based; parameters: CE formation induced by high calcium-containing media: unit of the concentration uncertain; conditions: for CE formation induced by high calcium-containing media: 1.6 mM Ca+2 media
Procedure: C. Inhidition of Spontaneous and Induced Cornified Envelope ("CE") Formation in Normal Human Epidermal Keratinocyte (NHEK) Cultures.
The data was collected in cultured NHEK cells which were grown in serum-free media to subconflurncy and then treated with DMSO (vehicle control) or various concentration of the compounds of this invention, etretinate (an antipsoriatic aromatic analog of retinoic acid) and staurosporine.
After 15 minutes, the NHEK cells were treated with DMSO (vehicle control), […] of 12-tetradecanoyl-phorbol-13-acetate ("TPA") to evaluate TPA-induced CE formation. In another experiment, the NHEK cells were refed media containing 0.15 mM Ca⁺² (control) or a high calcium-containing media, i.e., a 1.6 mM Ca⁺² media to induce CE formation by such a high calcium-containing media. After 48 hours, the cells so-treated were harvested and viable and total cells were counted. Cornified envelopes were assessed after resuspending cells pellets in buffer containing sodium dodecyl sulfate ("SDS") and dithiothreitol ("DTT"). CE formation induced by TPA or high calcium-containing media was expressed as CE/viable cells and each treatment group was compared to its appropriate control group.

[4] = concentration of <10 mM, NHEK cells

Chain of Myosin light chain kinase (MLCK) (Q15746 whole entry): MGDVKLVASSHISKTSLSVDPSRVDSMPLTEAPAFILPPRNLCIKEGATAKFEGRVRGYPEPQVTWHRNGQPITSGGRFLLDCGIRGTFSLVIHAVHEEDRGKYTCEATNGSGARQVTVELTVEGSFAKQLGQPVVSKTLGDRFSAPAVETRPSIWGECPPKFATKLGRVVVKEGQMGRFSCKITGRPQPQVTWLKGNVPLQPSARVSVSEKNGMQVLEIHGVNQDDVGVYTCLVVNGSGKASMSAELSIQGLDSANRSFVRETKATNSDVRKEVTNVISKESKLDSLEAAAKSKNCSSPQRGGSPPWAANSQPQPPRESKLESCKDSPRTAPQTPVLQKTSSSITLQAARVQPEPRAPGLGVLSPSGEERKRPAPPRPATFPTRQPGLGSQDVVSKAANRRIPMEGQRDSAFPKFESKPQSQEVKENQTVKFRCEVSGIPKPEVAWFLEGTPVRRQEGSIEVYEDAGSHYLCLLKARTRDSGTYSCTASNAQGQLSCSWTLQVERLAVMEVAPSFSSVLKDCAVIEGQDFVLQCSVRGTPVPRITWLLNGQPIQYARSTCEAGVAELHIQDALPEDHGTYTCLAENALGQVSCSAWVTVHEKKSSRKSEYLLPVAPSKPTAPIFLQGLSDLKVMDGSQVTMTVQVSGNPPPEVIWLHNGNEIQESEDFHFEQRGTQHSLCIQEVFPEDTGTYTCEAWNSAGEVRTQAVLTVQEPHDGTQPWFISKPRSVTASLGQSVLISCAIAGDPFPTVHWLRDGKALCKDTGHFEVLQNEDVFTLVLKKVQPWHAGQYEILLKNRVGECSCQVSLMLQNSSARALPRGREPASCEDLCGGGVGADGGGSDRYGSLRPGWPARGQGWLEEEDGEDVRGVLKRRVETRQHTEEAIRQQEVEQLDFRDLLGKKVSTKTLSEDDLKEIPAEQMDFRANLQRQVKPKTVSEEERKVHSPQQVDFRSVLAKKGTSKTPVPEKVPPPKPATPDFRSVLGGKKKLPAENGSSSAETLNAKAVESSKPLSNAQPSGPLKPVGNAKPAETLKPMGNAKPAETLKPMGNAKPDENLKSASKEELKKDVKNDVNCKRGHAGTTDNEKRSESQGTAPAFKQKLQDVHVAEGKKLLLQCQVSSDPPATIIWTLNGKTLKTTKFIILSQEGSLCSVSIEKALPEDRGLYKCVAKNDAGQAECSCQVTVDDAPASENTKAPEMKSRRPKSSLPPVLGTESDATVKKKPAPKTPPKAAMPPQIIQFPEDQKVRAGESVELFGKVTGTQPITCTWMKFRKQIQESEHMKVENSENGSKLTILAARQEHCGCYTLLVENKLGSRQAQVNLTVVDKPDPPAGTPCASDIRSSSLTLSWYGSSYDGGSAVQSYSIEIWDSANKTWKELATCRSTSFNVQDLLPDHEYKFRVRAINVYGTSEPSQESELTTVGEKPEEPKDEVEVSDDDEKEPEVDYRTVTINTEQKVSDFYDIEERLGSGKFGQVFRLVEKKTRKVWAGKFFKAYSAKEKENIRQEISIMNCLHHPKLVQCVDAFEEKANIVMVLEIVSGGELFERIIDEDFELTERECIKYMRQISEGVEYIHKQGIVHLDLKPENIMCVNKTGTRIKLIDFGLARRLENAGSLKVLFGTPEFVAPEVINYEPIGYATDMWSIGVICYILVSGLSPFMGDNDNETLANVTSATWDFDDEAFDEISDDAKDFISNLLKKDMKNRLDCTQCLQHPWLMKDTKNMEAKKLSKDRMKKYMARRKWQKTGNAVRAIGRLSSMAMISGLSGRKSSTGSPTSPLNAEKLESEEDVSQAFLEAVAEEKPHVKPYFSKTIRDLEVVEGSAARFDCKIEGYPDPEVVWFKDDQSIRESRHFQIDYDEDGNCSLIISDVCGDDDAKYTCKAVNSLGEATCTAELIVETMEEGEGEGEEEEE

SMILES	IC50 [1] [nM]	IC50 [2] [nM]	MLCK/PKC [2]	further results
COC1C([N+](C)(C)[O-])CC2OC1(C)n1c3ccccc3c3c4c(c5c6ccccc6n2c5c31)C(=O)NC4 (stereo not drawn) [Example 1, 4′ N-methyl-N-oxide of staurosporine]	34	3.1	11	
COC1C([N+](C)([O-])Cc2ccccc2)CC2OC1(C)n1c3ccccc3c3c4c(c5c6ccccc6n2c5c31)C(=O)NC4 (stereo not drawn) [Example 11, 4′-N-benzyl-N-oxide of staurosporine]	55	33	16.7	CE formation induced by high calcium-containing media ([3]; 500 (unit uncertain) concentration, NHEK cells, 48 hours): 71%; CE formation induced by high calcium-containing media ([3]; 1000 (unit uncertain) concentration, NHEK cells, 48 hours): 74%; TPA-induced CE formation ([3]; concentration of 250 mM, TPA-treated NHEK cells, 48 hours): antagonizes
CN[C@@H]1C[C@H]2O[C@@](C)([C@@H]1OC)n1c3ccccc3c3c4c(c5c6ccccc6n2c5c31)C(=O)NC4 [Staurosporine, staurosporine]				CE formation [3, 4]: potently inhibited; cytotoxicity [3, 4]: cytotoxicity was observed
CCOC(=O)/C=C(C)/C=C/C=C(C)/C=C/c1c(C)cc(OC)c(C)c1C [etretinate, reference compound]				cornified envelope formation / keratinocyte cornification ([3]; human keratinocytes, no concentration given): inhibition of keratinocyte cornification
